# Data as given in patent US8952024B2, “Herbicidal pyrimidone derivatives” (E I du Pont de Nemours and Company, priority 2009, dated 2015).
# Key:
# Type in all cases: in vivo
# [1] = system: velvetleaf (Abutilon theophrasti); assay: Test B pre-/postemergence plant response
# In short: (§1)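 Compound in solvent + surfactant applied pre-em (loam/sand) or post-em (plants 2–18 cm, peat medium); greenhouse hold 13–15 days; visual 0–100 control score.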
# [2] = system: Surinam grass (Brachiaria decumbens); assay: Test B pre-/postemergence plant response
# In short: as §1
# [3] = system: lambsquarters (Chenopodium album); assay: Test B pre-/postemergence plant response
# In short: as §1
# [4] = system: soybean (Glycine max); assay: Test B pre-/postemergence plant response
# In short: as §1
# [5] = system: wild oat (Avena fatua); assay: Test B pre-/postemergence plant response
# In short: as §1
# [6] = system: cocklebur (Xanthium strumarium); assay: Test B pre-/postemergence plant response
# In short: as §1
# [7] = system: blackgrass (Alopecurus myosuroides); assay: Test B pre-/postemergence plant response
# In short: as §1
# [8] = system: pigweed (Amaranthus retroflexus); assay: Test B pre-/postemergence plant response
# In short: as §1
# [9] = system: kochia (Kochia scoparia); assay: Test B pre-/postemergence plant response
# In short: as §1
# [10] = system: wheat (Triticum aestivum); assay: Test B pre-/postemergence plant response
# In short: as §1
# [11] = system: windgrass (Apera spica-venti); assay: Test B postemergence plant response
# In short: (§2)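 Plants at the 1- to 4-leaf stage (2 to 18 cm tall), grown in pots of peat moss/vermiculite medium with wetting agent and starter nutrients, received postemergence applications of test chemicals. After 13 to 15 days in a greenhouse, injury was rated visually against untreated controls on a 0 (no effect) to 100 (complete control) scale.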
# [12] = system: chickweed (Stellaria media); assay: Test B postemergence plant response
# In short: as §2
# [13] = system: canarygrass (Phalaris minor); assay: Test B postemergence plant response
# In short: as §2
# [14] = 31 g ai/ha, postemergence, scale 0 to 100, 0 is no effect, 100 is complete control
# [15] = 62 g ai/ha, postemergence, 0 is no effect, 100 is complete control, 13 to 15 days
# [16] = Postemergence, 125 g ai/ha, visual rating after 13 to 15 days, scale 0 (no effect) to 100 (complete control)
# [17] = Postemergence, 250 g ai/ha, scale 0 to 100 (0 no effect, 100 complete control)
# [18] = Preemergence, 31 g ai/ha, scale 0 to 100 (0 no effect, 100 complete control)
# [19] = Preemergence, 62 g ai/ha, scale 0 to 100 (0 no effect, 100 complete control)
# [20] = Preemergence, 125 g ai/ha, scale 0 to 100, 0 no effect, 100 complete control
# [21] = 250 g ai/ha, Preemergence, 0 to 100 scale
structure (smiles),measurement,setting,value
CCCc1ncc(C(=O)C2=C(O)CCCC2=O)c(=O)n1-c1ccccc1C [Compound 73],"Plant response rating, Velvetleaf",[1]; [14],95
same,Velvetleaf plant response rating (0 to 100 scale),[1]; [15],100
same,"Plant response rating, Velvetleaf",[1]; [16],100
same,"Plant response rating, Velvetleaf",[1]; [17],100
same,"Plant response rating, Velvetleaf",[1]; [18],100
same,"Plant response rating, Velvetleaf",[1]; [19],100
same,"Plant response rating, Velvetleaf",[1]; [20],100
same,"Plant response rating, Surinam Grass",[2]; [14],80
same,Surinam Grass plant response rating (0 to 100 scale),[2]; [15],85
same,"Plant response rating, Surinam Grass",[2]; [16],85
same,"Plant response rating, Surinam Grass",[2]; [17],85
same,"Plant response rating, Surinam Grass",[2]; [18],85
same,"Plant response rating, Surinam Grass",[2]; [19],100
same,"Plant response rating, Surinam Grass",[2]; [20],100
same,"Plant response rating, Lambsquarters",[3]; [14],85
same,Lambsquarters plant response rating (0 to 100 scale),[3]; [15],98
same,"Plant response rating, Lambsquarters",[3]; [21],100
same,"Plant response rating, Lambsquarters",[3]; [16],100
same,"Plant response rating, Lambsquarters",[3]; [17],100
same,"Plant response rating, Lambsquarters",[3]; [18],95
same,"Plant response rating, Lambsquarters",[3]; [19],98
same,"Plant response rating, Lambsquarters",[3]; [20],100
same,"Plant response rating, Soybean",[4]; [14],80
same,Soybean plant response rating (0 to 100 scale),[4]; [15],85
same,"Plant response rating, Soybean",[4]; [16],90
same,"Plant response rating, Soybean",[4]; [17],95
same,"Plant response rating, Oat, Wild",[5]; [14],55
same,"Oat, Wild plant response rating (0 to 100 scale)",[5]; [15],80
same,"Plant response rating, Oat, Wild",[5]; [16],80
same,"Plant response rating, Oat, Wild",[5]; [17],95
same,"Plant response rating, Oat, Wild",[5]; [18],0
same,"Plant response rating, Oat, Wild",[5]; [19],0
same,"Plant response rating, Oat, Wild",[5]; [20],0
same,"Plant response rating, Cocklebur",[6]; [14],0
same,Cocklebur plant response rating (0 to 100 scale),[6]; [15],45
same,"Plant response rating, Cocklebur",[6]; [21],65
same,"Plant response rating, Cocklebur",[6]; [16],65
same,"Plant response rating, Cocklebur",[6]; [17],80
same,"Plant response rating, Cocklebur",[6]; [18],0
same,"Plant response rating, Cocklebur",[6]; [19],0
same,"Plant response rating, Cocklebur",[6]; [20],60
same,"Plant response rating, Blackgrass",[7]; [14],0
same,Blackgrass plant response rating (0 to 100 scale),[7]; [15],10
same,"Plant response rating, Blackgrass",[7]; [21],10
same,"Plant response rating, Blackgrass",[7]; [16],10
same,"Plant response rating, Blackgrass",[7]; [17],30
same,"Plant response rating, Blackgrass",[7]; [18],0
same,"Plant response rating, Blackgrass",[7]; [19],0
same,"Plant response rating, Blackgrass",[7]; [20],0
same,"Plant response rating, Pigweed",[8]; [14],80
same,Pigweed plant response rating (0 to 100 scale),[8]; [15],98
same,"Plant response rating, Pigweed",[8]; [16],100
same,"Plant response rating, Pigweed",[8]; [17],100
same,"Plant response rating, Pigweed",[8]; [18],95
same,"Plant response rating, Pigweed",[8]; [19],100
same,"Plant response rating, Pigweed",[8]; [20],100
same,"Plant response rating, Kochia",[9]; [14],75
same,Kochia plant response rating (0 to 100 scale),[9]; [15],80
same,"Plant response rating, Kochia",[9]; [21],90
same,"Plant response rating, Kochia",[9]; [16],90
same,"Plant response rating, Kochia",[9]; [17],90
same,"Plant response rating, Kochia",[9]; [18],0
same,"Plant response rating, Kochia",[9]; [20],80
same,"Plant response rating, Wheat",[10]; [14],0
same,Wheat plant response rating (0 to 100 scale),[10]; [15],35
same,"Plant response rating, Wheat",[10]; [16],40
same,"Plant response rating, Wheat",[10]; [17],50
same,"Plant response rating, Wheat",[10]; [18],0
same,"Plant response rating, Wheat",[10]; [19],0
same,"Plant response rating, Wheat",[10]; [20],5
same,"Plant response rating, Windgrass",[11]; [14],70
same,Windgrass plant response rating (0 to 100 scale),[11]; [15],80
same,"Plant response rating, Windgrass",[11]; [16],90
same,"Plant response rating, Windgrass",[11]; [17],98
same,"Plant response rating, Chickweed",[12]; [14],80
same,Chickweed plant response rating (0 to 100 scale),[12]; [15],80
same,"Plant response rating, Chickweed",[12]; [16],95
same,"Plant response rating, Chickweed",[12]; [17],100
same,"Plant response rating, Canarygrass",[13]; [14],0
same,Canarygrass plant response rating (0 to 100 scale),[13]; [15],0
same,"Plant response rating, Canarygrass",[13]; [16],5
same,"Plant response rating, Canarygrass",[13]; [17],40
